Literature values as cited in patent US11760974B2, “Personalized 3D neural culture system for generating human oligodendrocytes and studying myelination in vitro” (The Board of Trustees of the Leland Stanford Junior …, priority 2017, dated 2023).
Blank lines part the entries; values can stand above or below the molecule they belong to.

Columns and labels:
[1] = biological target: element-binding protein (CBP) (Homo sapiens, UniProt Q92793)
[2] = biological target: T1, Wnt processing and secretion (Porcn) (Homo sapiens, UniProt Q9H237); settings: cell-free assay
T1 sequence (Q9H237 1-461): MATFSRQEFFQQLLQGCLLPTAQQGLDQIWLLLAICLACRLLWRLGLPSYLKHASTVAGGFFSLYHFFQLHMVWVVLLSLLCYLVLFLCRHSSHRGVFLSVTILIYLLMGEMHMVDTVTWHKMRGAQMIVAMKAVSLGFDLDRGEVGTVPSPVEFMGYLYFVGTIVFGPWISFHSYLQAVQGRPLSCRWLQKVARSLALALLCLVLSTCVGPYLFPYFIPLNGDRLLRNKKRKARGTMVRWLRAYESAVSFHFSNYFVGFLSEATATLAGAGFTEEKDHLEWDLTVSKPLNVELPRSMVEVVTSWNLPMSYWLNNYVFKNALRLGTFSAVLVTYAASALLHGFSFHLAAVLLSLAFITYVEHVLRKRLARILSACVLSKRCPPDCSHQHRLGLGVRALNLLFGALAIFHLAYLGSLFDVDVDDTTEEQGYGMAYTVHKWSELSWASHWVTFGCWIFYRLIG

Porcn = biological target: T2, Porcn (Homo sapiens, UniProt Q9H237); settings: read-out: EC50 Porcn inhibitor
T2 sequence (Q9H237 1-461): T1 sequence (Q9H237 1-461)

[3] = test system: Wnt pathway in L-cells expressing Wnt3A; settings: read-out: IC50 Wnt pathway inhibition
[4] = test system: Wnt signaling in TM3 cells (PORCN); settings: read-out: IC50 Wnt signaling inhibition
TNKS2 = biological target: T3, TNKS2 (Homo sapiens, UniProt Q9H2K2)
T3 sequence (Q9H2K2 1-1166): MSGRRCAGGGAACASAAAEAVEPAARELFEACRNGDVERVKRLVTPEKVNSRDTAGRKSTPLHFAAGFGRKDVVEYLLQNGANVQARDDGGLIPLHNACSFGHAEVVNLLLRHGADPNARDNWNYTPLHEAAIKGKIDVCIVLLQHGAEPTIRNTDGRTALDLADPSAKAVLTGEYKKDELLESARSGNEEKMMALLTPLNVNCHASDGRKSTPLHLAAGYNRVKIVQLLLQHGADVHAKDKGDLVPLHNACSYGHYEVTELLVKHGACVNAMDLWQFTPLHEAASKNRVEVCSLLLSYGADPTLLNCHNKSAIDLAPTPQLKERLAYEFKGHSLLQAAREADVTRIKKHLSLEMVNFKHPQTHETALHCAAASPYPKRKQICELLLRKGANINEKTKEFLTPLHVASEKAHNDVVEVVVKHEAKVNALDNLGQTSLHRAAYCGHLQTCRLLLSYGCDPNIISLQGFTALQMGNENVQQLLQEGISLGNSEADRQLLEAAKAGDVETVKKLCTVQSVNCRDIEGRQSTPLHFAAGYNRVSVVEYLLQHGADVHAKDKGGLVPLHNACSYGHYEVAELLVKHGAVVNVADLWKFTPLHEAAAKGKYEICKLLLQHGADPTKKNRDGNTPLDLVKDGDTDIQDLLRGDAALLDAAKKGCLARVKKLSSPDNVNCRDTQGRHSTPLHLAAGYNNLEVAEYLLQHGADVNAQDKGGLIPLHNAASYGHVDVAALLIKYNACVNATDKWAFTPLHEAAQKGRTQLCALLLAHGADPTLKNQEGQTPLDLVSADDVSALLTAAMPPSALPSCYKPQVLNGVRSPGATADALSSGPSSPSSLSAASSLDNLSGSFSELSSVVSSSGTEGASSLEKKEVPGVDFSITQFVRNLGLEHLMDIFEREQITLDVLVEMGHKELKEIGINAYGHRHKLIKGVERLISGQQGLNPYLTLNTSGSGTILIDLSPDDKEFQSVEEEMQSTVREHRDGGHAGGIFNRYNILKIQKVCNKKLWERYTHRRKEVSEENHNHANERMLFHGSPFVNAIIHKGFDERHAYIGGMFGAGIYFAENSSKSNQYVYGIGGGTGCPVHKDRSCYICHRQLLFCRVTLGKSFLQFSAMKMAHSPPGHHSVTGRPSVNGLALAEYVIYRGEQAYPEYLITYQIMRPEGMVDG

[5] = test system: PORCN / Wnt3A-mediated TCF-luciferase activation in HEK293 cells; settings: read-out: IC50 Wnt3A-mediated activation of TCF-binding site driving luciferase

Sequence of element-binding protein (CBP) (Q92793 whole entry): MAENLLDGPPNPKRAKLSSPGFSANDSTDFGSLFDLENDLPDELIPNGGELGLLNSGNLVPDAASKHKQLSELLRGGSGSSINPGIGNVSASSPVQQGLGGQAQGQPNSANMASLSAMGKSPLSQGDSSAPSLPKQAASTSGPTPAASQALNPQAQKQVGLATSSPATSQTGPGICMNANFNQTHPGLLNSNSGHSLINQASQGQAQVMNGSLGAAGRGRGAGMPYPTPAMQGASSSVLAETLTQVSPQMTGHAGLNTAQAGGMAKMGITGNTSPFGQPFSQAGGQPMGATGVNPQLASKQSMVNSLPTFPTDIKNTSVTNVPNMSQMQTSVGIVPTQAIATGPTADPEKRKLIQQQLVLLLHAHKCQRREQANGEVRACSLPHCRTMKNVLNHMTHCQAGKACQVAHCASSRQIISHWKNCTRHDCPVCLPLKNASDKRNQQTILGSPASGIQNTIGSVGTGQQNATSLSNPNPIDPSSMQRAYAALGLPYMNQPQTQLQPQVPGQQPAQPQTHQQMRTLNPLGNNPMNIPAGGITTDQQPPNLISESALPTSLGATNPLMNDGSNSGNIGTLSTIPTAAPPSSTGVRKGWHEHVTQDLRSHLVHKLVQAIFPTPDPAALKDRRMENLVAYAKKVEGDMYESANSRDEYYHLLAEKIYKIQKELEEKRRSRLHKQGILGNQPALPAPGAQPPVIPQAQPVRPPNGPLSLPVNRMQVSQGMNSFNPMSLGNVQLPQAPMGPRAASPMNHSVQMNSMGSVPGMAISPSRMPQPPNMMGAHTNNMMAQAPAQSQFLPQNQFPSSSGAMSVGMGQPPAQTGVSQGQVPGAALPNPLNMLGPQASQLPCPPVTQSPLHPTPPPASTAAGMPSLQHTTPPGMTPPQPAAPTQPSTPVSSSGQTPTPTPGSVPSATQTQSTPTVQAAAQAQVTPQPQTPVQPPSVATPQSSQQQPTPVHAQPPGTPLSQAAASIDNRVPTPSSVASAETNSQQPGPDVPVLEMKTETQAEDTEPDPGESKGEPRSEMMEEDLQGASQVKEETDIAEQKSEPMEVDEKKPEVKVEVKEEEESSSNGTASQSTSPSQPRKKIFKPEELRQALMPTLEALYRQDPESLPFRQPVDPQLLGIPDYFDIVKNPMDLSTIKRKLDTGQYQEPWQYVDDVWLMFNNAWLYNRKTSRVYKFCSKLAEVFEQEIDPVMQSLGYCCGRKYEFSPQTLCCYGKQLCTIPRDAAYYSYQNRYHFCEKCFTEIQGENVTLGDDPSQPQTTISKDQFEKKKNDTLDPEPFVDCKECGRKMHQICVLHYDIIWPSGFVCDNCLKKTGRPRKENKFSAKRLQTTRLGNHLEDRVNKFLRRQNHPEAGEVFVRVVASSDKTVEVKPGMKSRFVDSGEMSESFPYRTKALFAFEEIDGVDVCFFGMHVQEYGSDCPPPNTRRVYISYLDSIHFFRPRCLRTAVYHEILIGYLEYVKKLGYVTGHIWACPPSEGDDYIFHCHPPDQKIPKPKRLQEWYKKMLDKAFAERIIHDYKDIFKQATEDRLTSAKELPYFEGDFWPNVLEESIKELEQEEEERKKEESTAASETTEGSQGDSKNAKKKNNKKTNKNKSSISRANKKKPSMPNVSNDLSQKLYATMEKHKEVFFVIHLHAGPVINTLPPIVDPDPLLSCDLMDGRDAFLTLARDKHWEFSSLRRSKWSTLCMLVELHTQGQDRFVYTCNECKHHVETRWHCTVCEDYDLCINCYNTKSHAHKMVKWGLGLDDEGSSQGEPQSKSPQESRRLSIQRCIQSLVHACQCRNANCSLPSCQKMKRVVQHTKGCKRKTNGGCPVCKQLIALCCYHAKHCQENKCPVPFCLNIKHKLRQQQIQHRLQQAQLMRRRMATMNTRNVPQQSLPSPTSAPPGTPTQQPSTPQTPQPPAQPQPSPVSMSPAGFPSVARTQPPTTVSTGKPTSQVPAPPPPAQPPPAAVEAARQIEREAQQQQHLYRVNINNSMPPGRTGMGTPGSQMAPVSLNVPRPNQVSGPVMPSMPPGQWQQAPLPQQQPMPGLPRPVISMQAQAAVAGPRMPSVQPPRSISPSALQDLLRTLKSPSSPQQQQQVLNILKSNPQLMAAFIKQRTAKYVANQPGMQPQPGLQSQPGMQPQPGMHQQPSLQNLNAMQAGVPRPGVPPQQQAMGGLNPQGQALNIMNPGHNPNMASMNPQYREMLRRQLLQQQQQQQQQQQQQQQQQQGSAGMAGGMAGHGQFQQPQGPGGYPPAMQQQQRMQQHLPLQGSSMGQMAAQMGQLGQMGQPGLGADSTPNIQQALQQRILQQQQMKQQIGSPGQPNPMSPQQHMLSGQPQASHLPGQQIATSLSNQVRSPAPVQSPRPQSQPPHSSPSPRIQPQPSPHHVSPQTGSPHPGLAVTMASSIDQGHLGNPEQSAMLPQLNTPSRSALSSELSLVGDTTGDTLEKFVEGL

Structure (SMILES): O=C1[C@H](Cc2ccc(O)cc2)N2C(=O)CCN(C(=O)NCc3ccccc3)[C@H]2CN1Cc1cccc2ccccc12 [ICG-001]
IC50 [1]: 3000 nM

Structure (SMILES): Cc1ccc2nc(NC(=O)CSc3nc4c(c(=O)n3-c3ccccc3)SCC4)sc2c1 [IWP-2]
IC50 [2]: 27 nM

Structure (SMILES): O=C(CSc1nc2c(c(=O)n1-c1ccccc1)SCC2)Nc1ccc(-c2ccccc2)cn1 [IWP-L6]
EC50 (Porcn): 0.5 nM

Structure (SMILES): O=C(Nc1cccc2cccnc12)c1ccc(N2C(=O)[C@@H]3[C@H](C2=O)[C@@H]2C=C[C@H]3C2)cc1 [IWR-1-endo]
IC50 [3]: 180 nM

Structure (SMILES): Cc1cc(-c2ccc(CC(=O)Nc3ccc(-c4cccnc4)cc3)cc2)ccn1 [Wnt-C59]
IC50 [5]: 0.074 nM

Results, then the molecule that gave them:

IC50 [4]: 0.4 nM
Structure (SMILES): Cc1cc(-c2ncc(CC(=O)Nc3ccc(-c4cnccn4)cn3)cc2C)ccn1 [LGK-974]

IC50 (TNKS2): 15 nM
Structure (SMILES): COc1ccc(-n2c(SCCCN3C(=O)c4cccc5cccc(c45)C3=O)nnc2-c2ccncc2)cc1 [WIKI4]
